Drawing on patent publication EP4342530A1, “SORTILIN MODULATORS” (Insusense ApS, priority 2022, dated 2024), this text covers Kd for four compounds.

This assay addresses T1, Sortilin (Mus musculus, UniProt Q6PHU5).
T1 construct: purchased Bio-Techne Ltd 2934-ST-050
T1 sequence (Q6PHU5 76-753 limits assumed): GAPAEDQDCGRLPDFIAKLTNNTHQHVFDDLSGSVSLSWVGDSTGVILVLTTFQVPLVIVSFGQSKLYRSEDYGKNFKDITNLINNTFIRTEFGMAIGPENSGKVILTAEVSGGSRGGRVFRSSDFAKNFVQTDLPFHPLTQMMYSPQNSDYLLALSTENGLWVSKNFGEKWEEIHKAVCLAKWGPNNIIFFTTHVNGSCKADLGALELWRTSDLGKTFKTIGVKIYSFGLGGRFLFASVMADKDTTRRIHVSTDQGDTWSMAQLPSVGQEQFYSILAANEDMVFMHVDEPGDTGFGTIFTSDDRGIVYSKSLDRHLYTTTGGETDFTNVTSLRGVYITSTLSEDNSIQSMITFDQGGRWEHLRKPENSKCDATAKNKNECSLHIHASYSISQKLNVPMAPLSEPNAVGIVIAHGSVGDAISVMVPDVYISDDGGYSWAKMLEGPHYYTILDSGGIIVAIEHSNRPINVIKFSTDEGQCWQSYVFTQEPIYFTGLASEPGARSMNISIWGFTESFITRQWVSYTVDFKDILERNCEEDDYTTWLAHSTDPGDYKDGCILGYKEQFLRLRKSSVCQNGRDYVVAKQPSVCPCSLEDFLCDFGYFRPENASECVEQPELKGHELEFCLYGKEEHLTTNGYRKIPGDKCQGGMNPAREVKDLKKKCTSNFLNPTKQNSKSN
The assay can be described thus: Creoptix (GCI) binding kinetics, mouse Sortilin. To be noted: Species Mouse, screened at 1 µM, 25 degrees Celsius. The method, then: Creoptix (GCI) method - using SEQ ID NO.4 (Murine sortillin)
A protein, bound to a surface, is bathed in a solution containing potential ligands giving rise to binding kinetics to generate Kon and Koff rates, as well as a Kd.
All buffers described were filtered using a 0.2µm filter (Product number: 10300461, Nalgene) and degassed for 15 minutes prior to use.
A flow cell temperature of 25 degrees Celsius was used throughout the experiment.
A 4PCH chip was conditioned across all flow cells using 0.2 X concentration running buffer (running buffer composition: 1XHBS-N, pH 7.4, 3.4 mM EDTA, 1% DMSO) using pre-set conditioning wizard (WAVE control software) injecting: 0.1 M borate, 1 M NaCl (pH 9) followed by three start-up injections of 0.2 X running buffer.
A buffer exchange was performed and 1x running buffer (1XHBS-N, pH 7.4, 3.4 mM EDTA, 1% DMSO) used during the immobilisation procedure: An initial injection of EDC/NHS (mixed in 1:1 ratio) was performed across all 4-flow cells to activate the surface for amine coupling of ligands.
Recombinant Sortilin aliquots were thawed quickly by hand and centrifuged at 13,300 rpm for 10 minutes. A 10 µg/ml protein solution was then made in pH 5.0 acetate and injected once for 20 minutes over flow-cells 2, 3 and 4 for human, human (flow cells 2 & 3), and mouse Sortilin respectively followed by a 60 second dissociation period.
A final 7-minute passivation injection of 50 mM tris was used across all flow cells.
A flow rate of 10 µl/min was used for all conditioning and immobilisation cycles.
Compounds were screened at 1 µM using the in-built 'intermediate binders' settings: 100 ul/min, 45 s baseline, 25 s association, 300 s dissociation, with blanks every 5th sample and a DMSO correction (1.5 % DMSO at the start and end of the experiment as well as every 20 cycles. An acquisition rate of 10 Hz was used throughout the experiment.
Compounds were screened at a final assay concentration of 1 µM and a final DMSO concentration was 1 %. To achieve this, compounds were diluted in DMSO from 10 mM stocks to 100 µM (100 x final assay concentration) then diluted 1:100 in running buffer which contained no DMSO to establish a final assay concentration of compound of 1 µM and a final DMSO concentration of 1 % [DMSO].
Compounds and DMSO were mixed by plate shaking at 1000 rpm for 60 seconds using a Bioshake instrument.
A flow rate of 100 µl/min was used throughout the experiment.
Data was evaluated using the RAPID kinetic analysis tool in the GCI WAVE_control software with data fitted using a standard 1:1 kinetic BioModel.

Each structure is given as a SMILES string.

A word on the Kd: it is the concentration at which binding is half-saturated. For the compound `C[C@@H](N[C@@H](CCC(C)(C)C)C(=O)O)c1ccc2c(c1)CCCO2` [Example 52], the Kd (Form of Compound Mesylate salt) was 0.129 µM.

For the setting “Form of Compound Free acid”, `CC(C)(C)CC[C@H](NCc1ccc2c(c1)COCC2)C(=O)O` [Example 3, (S)-2-((isochroman-7-ylmethyl)amino)-5,5-dimethylhexanoic acid] displayed a dissociation constant (Kd) of 0.065 µM.

Consider `C[C@H](N[C@@H](CCC(C)(C)C)C(=O)O)c1ccc2c(c1)CCCO2` [Example 50], for which the Kd (Form of Compound Free acid) is 0.258 µM and the Kd (Form of Compound Mesylate salt) amounted to 0.258 µM.

As to `C[C@@H](N[C@@H](CCC(C)(C)C)C(=O)O)c1ccc2c(c1)OCCC2` [Example 9], the Kd was determined as 0.06 µM (Form of Compound Free acid) and 0.0595 µM (Form of Compound Mesylate salt).
